Data from PubChem BioAssay AID1845215 (Molecular Pharmacology Branch, DTP, NCI, 2023).

Test system: SW 1271 complex tumor spheroid viability
Assay: Anticancer human tumor SW 1271 cell line growth inhibition;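 note: spheroids exposed to agents for seven days before readout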;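 for viability, T/C: percent of DMSO vehicle control luminescence so 100% = vehicle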
Conditions: for IC50: curve of first compound; for viability, T/C: stronger effect = lower value
Summary of the method: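 Complex tumor spheroids combined malignant cells with endothelial cells and mesenchymal stem cells. DNA-damaging drugs and DNA repair inhibitors were tested alone and in combination, at half-log dilutions down from clinical Cmax (top 10 microM if Cmax unknown), 0.25% DMSO final.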

[1] = second compound 0.003 µM, first compound 0.0316 µM
[2] = second compound 0.003 µM, first compound 0.1 µM
[3] = second compound 0.003 µM, first compound 0.316 µM
[4] = second compound 0.003 µM, first compound 1 µM
[5] = second compound 0.003 µM, first compound 3.16 µM
[6] = second compound 0.003 µM, first compound 10 µM

Q: `CC(C)n1c(=O)n(C)c2cnc3cc(F)c(-c4ccc(OCCCN5CCCCC5)nc4)cc3c21` + COc1cc2c(cc1O)CCNC21CSC2c3c(OC(C)=O)c(C)c4c(c3C(COC1=O)N1C(O)C3Cc5cc(C)c(OC)c(O)c5C(C21)N3C)OCO4 was tested. Which IC50 (second compound 30 pM) did it give?
A: 931 nM

Q: What about the IC50 (second compound 94.9 pM) of the same compound?
A: < 31.6 nM

Q: And the IC50 (second compound 0.0003 µM)?
A: < 31.6 nM

Q: What about the IC50 (second compound 0.000949 µM) of the same compound?
A: < 31.6 nM

Q: And the IC50 (second compound 0.003 µM)?
A: < 31.6 nM

Q: And the viability, T/C (second compound 30 pM, first compound 0.0316 µM)?
A: 65%

Q: What about the viability, T/C (second compound 30 pM, first compound 0.1 µM) of the same compound?
A: 57.5%

Q: What about the viability, T/C (second compound 30 pM, first compound 0.316 µM) of the same compound?
A: 53.4%

Q: And the viability, T/C (second compound 30 pM, first compound 1 µM)?
A: 45.6%

Q: And the viability, T/C (second compound 30 pM, first compound 3.16 µM)?
A: 51.8%

Q: And the viability, T/C (second compound 30 pM, first compound 10 µM)?
A: 29.3%

Q: And the viability, T/C (second compound 94.9 pM, first compound 0.0316 µM)?
A: 29.6%

Q: What about the viability, T/C (second compound 94.9 pM, first compound 0.1 µM) of the same compound?
A: 28.7%

Q: What about the viability, T/C (second compound 94.9 pM, first compound 0.316 µM) of the same compound?
A: 22.3%

Q: And the viability, T/C (second compound 94.9 pM, first compound 1 µM)?
A: 24.2%

Q: And the viability, T/C (second compound 94.9 pM, first compound 3.16 µM)?
A: 20.9%

Q: What about the viability, T/C (second compound 94.9 pM, first compound 10 µM) of the same compound?
A: 15.8%

Q: And the viability, T/C (second compound 0.0003 µM, first compound 0.0316 µM)?
A: 28.5%

Q: What about the viability, T/C (second compound 0.0003 µM, first compound 0.1 µM) of the same compound?
A: 33.3%

Q: And the viability, T/C (second compound 0.0003 µM, first compound 0.316 µM)?
A: 24.7%

Q: What about the viability, T/C (second compound 0.0003 µM, first compound 1 µM) of the same compound?
A: 24.2%

Q: What about the viability, T/C (second compound 0.0003 µM, first compound 3.16 µM) of the same compound?
A: 19.1%

Q: And the viability, T/C (second compound 0.0003 µM, first compound 10 µM)?
A: 12.9%

Q: And the viability, T/C (second compound 0.000949 µM, first compound 0.0316 µM)?
A: 4.24%

Q: What about the viability, T/C (second compound 0.000949 µM, first compound 0.1 µM) of the same compound?
A: 3.92%

Q: What about the viability, T/C (second compound 0.000949 µM, first compound 0.316 µM) of the same compound?
A: 2.81%

Q: And the viability, T/C (second compound 0.000949 µM, first compound 1 µM)?
A: 1.61%

Q: What about the viability, T/C (second compound 0.000949 µM, first compound 3.16 µM) of the same compound?
A: 1.37%

Q: What about the viability, T/C (second compound 0.000949 µM, first compound 10 µM) of the same compound?
A: 1.05%

Q: And the viability, T/C [1]?
A: 0.12%

Q: And the viability, T/C [2]?
A: 0.11%

Q: What about the viability, T/C [3] of the same compound?
A: 0.09%

Q: And the viability, T/C [4]?
A: 0.1%

Q: What about the viability, T/C [5] of the same compound?
A: 0.1%

Q: What about the viability, T/C [6] of the same compound?
A: 0.16%

Q: Which results are given for `Cc1sc2c(c1C)C(c1ccc(Cl)cc1)=NC(CC(=O)Nc1ccc(O)cc1)c1nnc(C)n1-2` (stereo not given) + COc1cc2c(cc1O)CCNC21CSC2c3c(OC(C)=O)c(C)c4c(c3C(COC1=O)N1C(O)C3Cc5cc(C)c(OC)c(O)c5C(C21)N3C)OCO4?
A: IC50 (second compound 30 pM): 145 nM; IC50 (second compound 94.9 pM): 41.6 nM; IC50 (second compound 0.0003 µM): < 9.49 nM; IC50 (second compound 0.000949 µM): < 9.49 nM; IC50 (second compound 0.003 µM): < 9.49 nM; viability, T/C (second compound 30 pM, first compound 0.00949 µM): 101%; viability, T/C (second compound 30 pM, first compound 0.03 µM): 108%; viability, T/C (second compound 30 pM, first compound 0.0949 µM): 74.3%; viability, T/C (second compound 30 pM, first compound 0.3 µM): 8.06%; viability, T/C (second compound 30 pM, first compound 0.949 µM): 1.02%; viability, T/C (second compound 30 pM, first compound 3 µM): 0.91%; viability, T/C (second compound 94.9 pM, first compound 0.00949 µM): 76.2%; viability, T/C (second compound 94.9 pM, first compound 0.03 µM): 57.9%; viability, T/C (second compound 94.9 pM, first compound 0.0949 µM): 28.9%; viability, T/C (second compound 94.9 pM, first compound 0.3 µM): 5.41%; viability, T/C (second compound 94.9 pM, first compound 0.949 µM): 1.12%; viability, T/C (second compound 94.9 pM, first compound 3 µM): 0.93%; viability, T/C (second compound 0.0003 µM, first compound 0.00949 µM): 30.6%; viability, T/C (second compound 0.0003 µM, first compound 0.03 µM): 23.9%; viability, T/C (second compound 0.0003 µM, first compound 0.0949 µM): 13.5%; viability, T/C (second compound 0.0003 µM, first compound 0.3 µM): 2.97%; viability, T/C (second compound 0.0003 µM, first compound 0.949 µM): 1.45%; viability, T/C (second compound 0.0003 µM, first compound 3 µM): 0.77%; viability, T/C (second compound 0.000949 µM, first compound 0.00949 µM): 6.61%; viability, T/C (second compound 0.000949 µM, first compound 0.03 µM): 6.28%; viability, T/C (second compound 0.000949 µM, first compound 0.0949 µM): 2.99%; viability, T/C (second compound 0.000949 µM, first compound 0.3 µM): 1.78%; viability, T/C (second compound 0.000949 µM, first compound 0.949 µM): 0.1%; viability, T/C (second compound 0.000949 µM, first compound 3 µM): 0.09%; viability, T/C (second compound 0.003 µM, first compound 0.00949 µM): 0.11%; viability, T/C (second compound 0.003 µM, first compound 0.03 µM): 0.11%; viability, T/C (second compound 0.003 µM, first compound 0.0949 µM): 0.11%; viability, T/C (second compound 0.003 µM, first compound 0.3 µM): 0.11%; viability, T/C (second compound 0.003 µM, first compound 0.949 µM): 0.09%; viability, T/C (second compound 0.003 µM, first compound 3 µM): 0.17%

Q: For `CC1COCCN1c1cc(-c2ccnn2C)c2ccnc(-c3ccn[nH]3)c2n1` (stereo not given) + CC[C@@]1(O)C(=O)OCc2c1cc1n(c2=O)Cc2cc3c(CN(C)C)c(O)ccc3nc2-1, which IC50 (second compound 0.003 µM) is on record?
A: < 31.6 nM

Q: What about the IC50 (second compound 0.00949 µM) of the same compound?
A: < 31.6 nM

Q: And the IC50 (second compound 0.03 µM)?
A: < 31.6 nM

Q: And the IC50 (second compound 0.0949 µM)?
A: < 31.6 nM

Q: What about the IC50 (second compound 0.3 µM) of the same compound?
A: < 31.6 nM

Q: What about the viability, T/C [1] of the same compound?
A: 26%

Q: What about the viability, T/C [2] of the same compound?
A: 11.3%

Q: And the viability, T/C [3]?
A: 4.59%

Q: What about the viability, T/C [4] of the same compound?
A: 2.3%

Q: What about the viability, T/C [5] of the same compound?
A: 1.84%

Q: What about the viability, T/C [6] of the same compound?
A: 1.92%

Q: And the viability, T/C (second compound 0.00949 µM, first compound 0.0316 µM)?
A: 6.62%

Q: And the viability, T/C (second compound 0.00949 µM, first compound 0.1 µM)?
A: 4.56%

Q: And the viability, T/C (second compound 0.00949 µM, first compound 0.316 µM)?
A: 3.33%

Q: And the viability, T/C (second compound 0.00949 µM, first compound 1 µM)?
A: 2.14%

Q: And the viability, T/C (second compound 0.00949 µM, first compound 3.16 µM)?
A: 1.49%

Q: And the viability, T/C (second compound 0.00949 µM, first compound 10 µM)?
A: 1.95%

Q: And the viability, T/C (second compound 0.03 µM, first compound 0.0316 µM)?
A: 6.54%

Q: What about the viability, T/C (second compound 0.03 µM, first compound 0.1 µM) of the same compound?
A: 4.67%

Q: And the viability, T/C (second compound 0.03 µM, first compound 0.316 µM)?
A: 3.37%

Q: What about the viability, T/C (second compound 0.03 µM, first compound 1 µM) of the same compound?
A: 2.33%

Q: And the viability, T/C (second compound 0.03 µM, first compound 3.16 µM)?
A: 1.73%

Q: What about the viability, T/C (second compound 0.03 µM, first compound 10 µM) of the same compound?
A: 1.79%

Q: And the viability, T/C (second compound 0.0949 µM, first compound 0.0316 µM)?
A: 8.42%

Q: And the viability, T/C (second compound 0.0949 µM, first compound 0.1 µM)?
A: 6.2%

Q: And the viability, T/C (second compound 0.0949 µM, first compound 0.316 µM)?
A: 4.79%

Q: And the viability, T/C (second compound 0.0949 µM, first compound 1 µM)?
A: 2.58%

Q: What about the viability, T/C (second compound 0.0949 µM, first compound 3.16 µM) of the same compound?
A: 1.54%

Q: And the viability, T/C (second compound 0.0949 µM, first compound 10 µM)?
A: 1.64%

Q: And the viability, T/C (second compound 0.3 µM, first compound 0.0316 µM)?
A: 5.08%

Q: What about the viability, T/C (second compound 0.3 µM, first compound 0.1 µM) of the same compound?
A: 3.04%

Q: What about the viability, T/C (second compound 0.3 µM, first compound 0.316 µM) of the same compound?
A: 2.79%

Q: And the viability, T/C (second compound 0.3 µM, first compound 1 µM)?
A: 2.96%

Q: And the viability, T/C (second compound 0.3 µM, first compound 3.16 µM)?
A: 1.02%

Q: And the viability, T/C (second compound 0.3 µM, first compound 10 µM)?
A: 0.73%
